Assay results taken from ChEMBL document CHEMBL5329216, “Discovery of conformationally constrained c-Abl inhibitors with potential neuroprotective effects against Parkinson's disease” (Bioorg Med Chem, 2023).

Experiments:
[1] = Cytotoxicity against HEK293 cells assessed as reduction in cell viability incubated for 48 hrs by MTT assay; type: toxicity, cell-based; details: human
[2] = tested on: SH-SY5Y; assay: Neuroprotective activity against MPP+-induced human SH-SY5Y cells assessed as reduction in cell death at 5 uM measured after 48 hrs by MTT assay relative to control; type: functional; set-up: scale not given: the % may be the effect or the level left
[3] = Cytotoxicity against human L02 cells assessed as reduction in cell viability incubated for 48 hrs by MTT assay; type: toxicity, cell-based
[4] = tested on: SH-SY5Y; assay: Neuroprotective activity against MPP+-induced human SH-SY5Y cells assessed as reduction in cell death at 0.08 to 5 uM measured after 48 hrs by MTT assay relative to control; type: functional; set-up: scale not given: the % may be the effect or the level left; details: dose 0.08-5 µM
[5] = Cytotoxicity against human SH-SY5Y cells assessed as reduction in cell viability incubated for 48 hrs by MTT assay; type: toxicity, cell-based

Structure (SMILES)	IC50 at 48 h [1] [µM]	Activity [2] [%]	IC50 at 48 h [3] [µM]	Activity [4] [%]	IC50 at 48 h [5] [µM]
Cc1cn(-c2cc(NC(=O)c3ccc(C)c(Nc4nccc(-c5cccnc5)n4)c3)cc(C(F)(F)F)c2)cn1 [NILOTINIB]	8.2	20	37	6.9	–
Cc1ccc(C(=O)Nc2cc(-c3cnn(C)c3)cc(C(F)(F)F)c2)cc1Nc1cccc2c1C(=O)C(=O)N2C	> 80	–	> 80	–	> 80
Cc1ccc(C(=O)Nc2ccc(CN3CCN(C)CC3)c(C(F)(F)F)c2)cc1Nc1cccc2c1C(=O)C(=O)N2C	16.6	–	> 80	–	23.6
